The source made the active and inactive calls. No rule for the calls is given here.

For 3 molecules, mutagenic call results are on record in PubChem BioAssay AID1259407 (Chemical Carcinogenesis Research Information System (CCRIS), 2018).

In the data set the test system is CCRIS mutagenicity, Ames/micronucleus/aberration tests. As to the kind of experiment: CCRIS mutagenicity studies.

As for `c1ccc2ncccc2c1`, the mutagenic call reads like this: (End Point: IN VITRO CHROMOSOMAL ABERRATIONS, Test System: CHL CELLS, Metabolic Activation: NONE) “inactive; negative”; (End Point: IN VITRO CHROMOSOMAL ABERRATIONS, Test System: CHL CELLS, Metabolic Activation: RAT, LIVER, S-9, SODIUM PHENOBARBITAL AND 5,6-BENZOFLAVONE) “active; positive (structural changes)”; (End Point: IN VIVO MICRONUCLEUS, Test System: HEPATOCYTES, Species: RAT, Strain/Sex: FISHER 344 OR SD/MALE, Route: ORAL OR IP) “active; positive”; (End Point: IN VIVO MICRONUCLEUS, Test System: PERIPHERAL BLOOD RETICULOCYTES, Species: RAT, Strain/Sex: FISHER 344 OR SD/MALE, Route: ORAL OR IP) “inactive; negative; significant increase at 150 mg/kg”; (End Point: In vitro chromosomal aberrations, Test System: Chinese hamster lung fibroblast cells (CHL/IU), Metabolic Activation: Rat, liver, S-9) “active; positive (information derived from figure)”; (End Point: In vitro micronucleus, Test System: Chinese hamster lung fibroblast cells (CHL/IU), Metabolic Activation: Rat, Liver, S-9) “active; positive, cytotoxic at 0.1 mg/ml (information derived from a figure)”. Further, the mutagenic call is “active; positive (information derived from a figure)” (End Point: In vitro micronucleus, Test System: Chinese hamster lung fibroblast cells (CHL/IU), Metabolic Activation: Rat, liver, S-9); “active; positive (p<0.05)” (End Point: In vivo micronucleus, Test System: Micronucleated hepatocytes, Species: Rat, Strain/Sex: F344/Male, Route: Oral); “inactive; negative” (Test System: AMES SALMONELLA TYPHIMURIUM, Strain/Indicator: TA98, Metabolic Activation: NONE, Method: PREINCUBATION); “active; positive” (Test System: AMES SALMONELLA TYPHIMURIUM, Strain/Indicator: TA98, Metabolic Activation: RAT LIVER S-9, PHENOBARBITAL AND BETA-NAPHTHOFLAVONE, Method: PREINCUBATION); “active; positive” (Test System: AMES SALMONELLA TYPHIMURIUM, Strain/Indicator: TA98, Metabolic Activation: RAT, LIVER, S-9, (5%, 10% OR 20%) AROCLOR 1254, Method: STANDARD PLATE); “active; positive” (Test System: AMES SALMONELLA TYPHIMURIUM, Strain/Indicator: TA98, Metabolic Activation: RAT, LIVER, S-9, AROCLOR 1254, Method: STANDARD PLATE). Further, the mutagenic call by setting is: (Test System: AMES SALMONELLA TYPHIMURIUM, Strain/Indicator: TA98, Metabolic Activation: RAT, LIVER, S-9, KC500 OR PHENOBARBITAL, Method: LIQUID SUSPENSION) “active; positive”; (Test System: AMES SALMONELLA TYPHIMURIUM, Strain/Indicator: TA98, Metabolic Activation: RAT, LIVER, S-9, PCB, Method: PREINCUBATION) “active; positive”; (Test System: AMES SALMONELLA TYPHIMURIUM, Strain/Indicator: TA98, Metabolic Activation: RAT, LIVER, S-9, Method: PREINCUBATION) “active; positive”; (Test System: AMES SALMONELLA TYPHIMURIUM, Strain/Indicator: TA100, Metabolic Activation: NONE, Method: PREINCUBATION) “inactive; negative”; (Test System: AMES SALMONELLA TYPHIMURIUM, Strain/Indicator: TA100, Metabolic Activation: RAT LIVER S-9, PHENOBARBITAL AND 5,6-BENZOFLAVONE, Method: PREINCUBATION) “active; positive”; (Test System: AMES SALMONELLA TYPHIMURIUM, Strain/Indicator: TA100, Metabolic Activation: RAT LIVER S-9, PHENOBARBITAL AND BETA-NAPHTHOFLAVONE, Method: PREINCUBATION) “active; positive”. Further, the mutagenic call runs as follows: (Test System: AMES SALMONELLA TYPHIMURIUM, Strain/Indicator: TA100, Metabolic Activation: RAT, LIVER, S-9 (5%, 10% OR 20%) AROCLOR 1254, Method: STANDARD PLATE) “active; positive”; (Test System: AMES SALMONELLA TYPHIMURIUM, Strain/Indicator: TA100, Metabolic Activation: RAT, LIVER, S-9, (5%, 10% OR 20%,) AROCLOR 1254, Method: STANDARD PLATE) “active; positive”; (Test System: AMES SALMONELLA TYPHIMURIUM, Strain/Indicator: TA100, Metabolic Activation: RAT, LIVER, S-9, AROCLOR 1254, Method: PREINCUBATION) “active; positive”; (Test System: AMES SALMONELLA TYPHIMURIUM, Strain/Indicator: TA100, Metabolic Activation: RAT, LIVER, S-9, KC500 OR PHENOBARBITAL, Method: LIQUID SUSPENSION) “active; positive”; (Test System: AMES SALMONELLA TYPHIMURIUM, Strain/Indicator: TA100, Metabolic Activation: RAT, LIVER, S-9, PCB, Method: STANDARD PLATE) “active; positive”; (Test System: AMES SALMONELLA TYPHIMURIUM, Strain/Indicator: TA100, Metabolic Activation: RAT, LIVER, S-9, PHENOBARBITAL AND 5,6-BENZOFLAVONE, Method: PREINCUBATION) “active; positive”. For the same molecule, the mutagenic call is “active; positive” (Test System: AMES SALMONELLA TYPHIMURIUM, Strain/Indicator: TA100, Metabolic Activation: RAT, LIVER, S-9, PHENOBARBITAL AND 5,6-NAPHTHOFLAVONE, Method: PREINCUBATION); “active; positive” (Test System: AMES SALMONELLA TYPHIMURIUM, Strain/Indicator: TA100, Metabolic Activation: RAT, LIVER, S-9, Method: PREINCUBATION); “active; positive” (Test System: AMES SALMONELLA TYPHIMURIUM, Strain/Indicator: TA100, Metabolic Activation: S-9, Method: PREINCUBATION); “inactive; negative” (Test System: AMES SALMONELLA TYPHIMURIUM, Strain/Indicator: TA1535, Metabolic Activation: NONE, Method: PREINCUBATION); “inactive; negative” (Test System: AMES SALMONELLA TYPHIMURIUM, Strain/Indicator: TA1535, Metabolic Activation: RAT, LIVER, S-9, AROCLOR 1254, Method: STANDARD PLATE); “inactive; negative” (Test System: AMES SALMONELLA TYPHIMURIUM, Strain/Indicator: TA1537, Metabolic Activation: NONE, Method: PREINCUBATION). The mutagenic call reads like this: (Test System: E. COLI, Strain/Indicator: WP2UVRA, Metabolic Activation: NONE, Method: PREINCUBATION) “inactive; negative”; (Test System: E.COLI, Strain/Indicator: WP2UVRA, Metabolic Activation: RAT LIVER S-9, PHENOBARBITAL AND BETA-NAPHTHOFLAVONE, Method: PREINCUBATION) “active; positive”; (Test System: UDS RODENT HEPATOCYTES, Strain/Indicator: THY INCORP (NON-S-PHASE), Metabolic Activation: IN VIVO, Method: AUTORADIOGRAPHY) “inactive; negative”; (Test System: UDS RODENT HEPATOCYTES, Strain/Indicator: THY INCORP (NON-S-PHASE), Metabolic Activation: NONE, Method: AUTORADIOGRAPHY) “active; positive”.

With `CN(Cc1ccc(C#N)cc1)N=O`, the mutagenic call by setting is: (Test System: AMES SALMONELLA TYPHIMURIUM, Strain/Indicator: TA1535, Metabolic Activation: HAMSTER, LIVER, S-9, AROCLOR 1254, Method: STANDARD PLATE) “active; positive”; (Test System: AMES SALMONELLA TYPHIMURIUM, Strain/Indicator: TA1535, Metabolic Activation: NONE, Method: STANDARD PLATE) “inactive; negative”.

In the case of `CC(=O)O.CC(=O)O.O.O.[O]=[U]=[O]`, the mutagenic call (Test System: Chinese hamster ovary, Strain/Indicator: AA8 (HPRT)/6-Thioguanine, Metabolic Activation: None, Method: Standard plate) is “inactive; negative” and the mutagenic call (Test System: Chinese hamster ovary, Strain/Indicator: EM9 (HPRT)/6-Thioguanine, Metabolic Activation: None, Method: Standard plate) is “active; positive, em9 cho cells are xrcc1-deficient”.
